Measurements published in patent publication US12285407B2, “Bis-indolylmethane derivatives and uses thereof” (The University of The West Indies, priority 2018, dated 2025).
≈ marks a conversion by molar mass, not a printed value. Read-outs that look alike come from different tables or passages of the source.

Columns and labels:
Enterococcus faecalis = assay: Adjuvant broth microdilution (antibiotic MIC with SP-BIM at 50 μg/mL); assay type: cell-based; settings: antibiotic alone
clinical strains of MRSA = assay: Kirby Bauer disc diffusion susceptibility profile; assay type: cell-based, Staphylococcus aureus; settings: for Zone of clearance: 35° C., 24 hours, average n=3; for Interpretive standard (resistant/susceptible): zones vs EUCAST breakpoints (Table 30)
[1] = tested on: clinical antibiotic resistant isolates of MRSA; assay: Checkerboard resistance breaking by SP-BIM 13; assay type: cell-based, Staphylococcus aureus; settings: for FIC compound: SP-BIM 13 with the labelled antibiotic; for Interpretation / Σ FIC: antibiotic + SP-BIM 13; for MIC of antibiotic only: antibiotic alone; for FIC antibiotic: combination with SP-BIM 13; for MIC of antibiotic in combination: with SP-BIM 13 at rescue concentration
Escherichia coli O157:H7 = assay: Rescue concentrations of SP-BIM that reactivate antibiotic; assay type: cell-based; settings: for MIC: Escherichia coli
MRSA HS 10132 [2] = assay: Systemic non-lethal MRSA infection in mice (organ MRSA load); assay type: in vivo
MRSA HS 10132 [3] = assay: Systemic lethal MRSA infection in mice (survival); assay type: in vivo
[4] = tested on: Corynebacterium diphtheriae ATCC 27010; assay: Broth microdilution MIC of SP-BIMs; assay type: cell-based; settings: ATCC27010, SP-BIM alone, read-out: MIC Corynebacterium diphtheriae ATCC 27010
[5] = tested on: Staphylococcus aureus ATCC 12600; assay: Broth microdilution MIC of SP-BIMs; assay type: cell-based; settings: ATCC12600, SP-BIM alone, read-out: MIC Staphylococcus aureus ATCC 12600
[6] = tested on: Escherichia coli ATCC 35218; assay: Broth microdilution MIC of SP-BIMs; assay type: cell-based; settings: ATCC35218, SP-BIM alone, read-out: MIC Escherichia coli ATCC 35218
[7] = tested on: Pseudomonas aeruginosa ATCC 27853; assay: Broth microdilution MIC of SP-BIMs; assay type: cell-based; settings: ATCC27853, SP-BIM alone, read-out: MIC Pseudomonas aeruginosa ATCC 27853
[8] = tested on: Candida albicans ATCC 22972; assay: Broth microdilution MIC of SP-BIMs; assay type: cell-based; settings: ATCC22972, SP-BIM alone, read-out: MIC Candida albicans ATCC 22972
Gram-negative bacteria = assay: Adjuvant broth microdilution; assay type: cell-based; settings: SP-BIM at 50 μg mL^−1
Method: To each well, the SP-BIM to be tested was added to a final concentration of 50 μg mL^−1. […] SP-BIMs were assessed as potential adjuvants based on their ability to reduce the MIC of the antibiotic against respective pathogen.

[9] = tested on: α-hemolysin production in Staphylococcus aureus; assay type: cell-based
[10] = In vivo acute toxicity (OECD guidelines); settings: one subcutaneous injection, 2000 mg/kg and 300 mg/kg; 14 days
MRSA = assay: Adjuvant broth microdilution (antibiotic MIC with SP-BIM at 50 μg/mL); assay type: cell-based, Staphylococcus aureus

For `CC1(C)S[C@@H]2[C@H](NC(=O)[C@H](N)c3ccccc3)C(=O)N2[C@H]1C(=O)O` [Ampicillin, ampicillin], the “MIC of antibiotic, No Compound” value (Enterococcus faecalis) was 2 µg/mL, the Zone of clearance (clinical strains of MRSA; MRSA strain 1594) was 13.0 mm and the “Interpretive standard (resistant/susceptible)” value (clinical strains of MRSA; MRSA strain 1594) was “R”. For the same molecule, the “Interpretive standard (resistant/susceptible)” value (clinical strains of MRSA; MRSA strain 1621) was “R”, the Zone of clearance (clinical strains of MRSA; MRSA strain 5455) was 14.5 mm and the “Interpretive standard (resistant/susceptible)” value (clinical strains of MRSA; MRSA strain 5455) was “R”. For the same molecule, the Zone of clearance (clinical strains of MRSA; MRSA strain 5872) was 9.0 mm, the “Interpretive standard (resistant/susceptible)” value (clinical strains of MRSA; MRSA strain 5872) was “R” and the Zone of clearance (clinical strains of MRSA; MRSA strain 7153) was 13.5 mm. The “Interpretive standard (resistant/susceptible)” value (clinical strains of MRSA; MRSA strain 7153) was “R”, the Zone of clearance (clinical strains of MRSA; MRSA strain 7172) was 14.5 mm and the “Interpretive standard (resistant/susceptible)” value (clinical strains of MRSA; MRSA strain 7172) was “R”. For the same molecule, the Zone of clearance (clinical strains of MRSA; MRSA strain 7698) was 10.5 mm, the “Interpretive standard (resistant/susceptible)” value (clinical strains of MRSA; MRSA strain 7698) was “R” and the Zone of clearance (clinical strains of MRSA; MRSA strain 10132) was 14.0 mm. The “Interpretive standard (resistant/susceptible)” value (clinical strains of MRSA; MRSA strain 10132) was “R”, the FIC compound ([1]; MRSA strain 1594) was 0.128 and the Interpretation ([1]; MRSA strain 1594) was “Synergy (Synergy: FICI≤0.5)”. The Σ FIC ([1]; MRSA strain 1594) was under 0.14, the “MIC of antibiotic only” value ([1]; MRSA strain 1594) was 250 µg/mL and the FIC antibiotic ([1]; MRSA strain 1594) was 0.016. For the same molecule, the “MIC of antibiotic in combination” value ([1]; MRSA strain 1594) was 4 µg/mL, the FIC compound ([1]; MRSA strain 1621) was 0.128 and the Interpretation ([1]; MRSA strain 1621) was “Synergy (Synergy: FICI≤0.5)”. The Σ FIC ([1]; MRSA strain 1621) was under 0.13, the “MIC of antibiotic only” value ([1]; MRSA strain 1621) was 250 µg/mL and the FIC antibiotic ([1]; MRSA strain 1621) was 0.002. The “MIC of antibiotic in combination” value ([1]; MRSA strain 1621) was 0.5 µg/mL, the FIC compound ([1]; MRSA strain 5455) was 0.252 and the Interpretation ([1]; MRSA strain 5455) was “Synergy (Synergy: FICI≤0.5)”. For the same molecule, the Σ FIC ([1]; MRSA strain 5455) was under 0.26, the “MIC of antibiotic only” value ([1]; MRSA strain 5455) was 250 µg/mL and the FIC antibiotic ([1]; MRSA strain 5455) was 0.004. For the same molecule, the “MIC of antibiotic in combination” value ([1]; MRSA strain 5455) was 1 µg/mL, the FIC compound ([1]; MRSA strain 5872) was 0.128 and the Interpretation ([1]; MRSA strain 5872) was “Synergy (Synergy: FICI≤0.5)”. For the same molecule, the Σ FIC ([1]; MRSA strain 5872) was under 0.13, the “MIC of antibiotic only” value ([1]; MRSA strain 5872) was 250 µg/mL and the FIC antibiotic ([1]; MRSA strain 5872) was 0.002. For the same molecule, the “MIC of antibiotic in combination” value ([1]; MRSA strain 5872) was 0.5 µg/mL, the FIC compound ([1]; MRSA strain 7153) was 0.252 and the Interpretation ([1]; MRSA strain 7153) was “Synergy (Synergy: FICI≤0.5)”. For the same molecule, the Σ FIC ([1]; MRSA strain 7153) was under 0.25, the “MIC of antibiotic only” value ([1]; MRSA strain 7153) was 250 µg/mL and the FIC antibiotic ([1]; MRSA strain 7153) was 0.002. For the same molecule, the “MIC of antibiotic in combination” value ([1]; MRSA strain 7153) was 0.5 µg/mL, the FIC compound ([1]; MRSA strain 7172) was 0.128 and the Interpretation ([1]; MRSA strain 7172) was “Synergy (Synergy: FICI≤0.5)”. The Σ FIC ([1]; MRSA strain 7172) was under 0.14, the “MIC of antibiotic only” value ([1]; MRSA strain 7172) was 250 µg/mL and the FIC antibiotic ([1]; MRSA strain 7172) was 0.008. For the same molecule, the “MIC of antibiotic in combination” value ([1]; MRSA strain 7172) was 2 µg/mL, the FIC compound ([1]; MRSA strain 7698) was 0.128 and the Interpretation ([1]; MRSA strain 7698) was “Synergy (Synergy: FICI≤0.5)”. For the same molecule, the Σ FIC ([1]; MRSA strain 7698) was under 0.14, the “MIC of antibiotic only” value ([1]; MRSA strain 7698) was 250 µg/mL and the FIC antibiotic ([1]; MRSA strain 7698) was 0.008. For the same molecule, the “MIC of antibiotic in combination” value ([1]; MRSA strain 7698) was 2 µg/mL, the FIC compound ([1]; MRSA strain 10132) was 0.064 and the Interpretation ([1]; MRSA strain 10132) was “Synergy (Synergy: FICI≤0.5)”. For the same molecule, the Σ FIC ([1]; MRSA strain 10132) was under 0.07, the “MIC of antibiotic only” value ([1]; MRSA strain 10132) was 250 µg/mL and the FIC antibiotic ([1]; MRSA strain 10132) was 0.002. The “MIC of antibiotic in combination” value ([1]; MRSA strain 10132) was 0.5 µg/mL, the “MIC of antibiotic without SP-BIM 13” value ([1]; clinical MRSA strains) was at least 250 µg/mL and the “MIC of Ampicillin in combination with […] SP-BIM 27” value (Escherichia coli O157:H7; E. coli O157:H7, with […] SP-BIM 27) was 2 µg/mL. For the same molecule, the MIC (Escherichia coli O157:H7; read-out: MIC of Ampicillin) was 16 µg/mL, the “MRSA load in the spleen” value (MRSA HS 10132 [2]; ampicillin only ([…] mg kg^−1), SP-BIM 9 study) was 14,622 CFU g^−1 and the “MRSA counts in liver” value (MRSA HS 10132 [2]; ampicillin only ([…] mg kg^−1), subcutaneous) was 3500 CFU mL^−1. The “MRSA counts in the liver” value (MRSA HS 10132 [2]; ampicillin only, SP-BIM 9 study) was 7605 CFU g^−1 and the mortality (MRSA HS 10132 [3]; ampicillin only, 5 days) was 100%.
For `Oc1cc(C(c2c[nH]c3ccccc23)c2c[nH]c3ccccc23)cc(O)c1O` [SP-BIM 13, 5-(di(1H-indol-3-yl)methyl)benzene-1,2,3-triol], the MIC [4] was over 250 µg/mL, the MIC [5] was over 250 µg/mL and the MIC [6] was over 250 µg/mL. For the same molecule, the MIC [7] was 250 µg/mL, the MIC [8] was 250 µg/mL and the “potentiating activity for Gram-negative bacteria” value (Gram-negative bacteria) was “No potentiating activity was observed”. For the same molecule, the “reduction of ampicillin MICs by SP-BIM 13” value ([1]; clinical MRSA strains, in most cases) was 100 fold, the “MRSA load in the spleen” value (MRSA HS 10132 [2]; SP-BIM 13 only, both levels) was “did not significantly reduce” and the “MRSA counts in liver” value (MRSA HS 10132 [2]; ampicillin ([…] mg kg^−1)+5 mg kg^−1 SP-BIM 13) was 7900 CFU mL^−1. The “MRSA counts in liver” value (MRSA HS 10132 [2]; ampicillin ([…] mg kg^−1)+10 mg kg^−1 SP-BIM 13) was 900 CFU mL^−1, the “MRSA counts in liver” value (MRSA HS 10132 [2]; ampicillin ([…] mg kg^−1)+25 mg kg^−1 SP-BIM 13) was 63 CFU mL^−1 and the “MRSA load in the spleen” value (MRSA HS 10132 [2]; ampicillin and SP-BIM 13 at 10 and 25 mg kg^−1, vs no treatment, ampicillin only, ampicillin+5 mg kg^−1) was “significantly lower”. It also gave a mortality (MRSA HS 10132 [3]; SP-BIM 13 only 5 mg kg^−1) of 40%, a mortality (MRSA HS 10132 [3]; SP-BIM 13 only 10 mg kg^−1) of 60% and a mortality (MRSA HS 10132 [3]; SP-BIM 13 only 25 mg kg^−1) of 0%. The mortality (MRSA HS 10132 [3]; ampicillin in combination with three levels SP-BIM 13, 5 days) was 0%, the survival rate (MRSA HS 10132 [3]; vancomycin in combination with the three levels of SP-BIM 13) was “similarly high survival rate” and the “lysis of RBCs” value [9] was “less than 50%”. The mice deaths [10] was “no mice deaths were recorded” and the “mice weight and appetite” value [10] was “did not significantly vary from the untreated mice”.
With `CN[C@H](CC(C)C)C(=O)N[C@H]1C(=O)N[C@@H](CC(N)=O)C(=O)N[C@H]2C(=O)N[C@H]3C(=O)N[C@H](C(=O)N[C@H](C(=O)O)c4cc(O)cc(O)c4-c4cc3ccc4O)[C@H](O)c3ccc(c(Cl)c3)Oc3cc2cc(c3O[C@@H]2O[C@H](CO)[C@@H](O)[C@H](O)[C@H]2O[C@H]2C[C@](C)(N)[C@H](O)[C@H](C)O2)Oc2ccc(cc2Cl)[C@H]1O` [Vancomycin, vancomycin] the MIC (MRSA; Staphylococcus aureus, read-out: MIC of antibiotic, No compound) was 4 µg/mL, the “MIC of antibiotic, No Compound” value (MRSA; antibiotic alone, Table 8 (series SP-BIMs 21-29)) was 2 µg/mL and the “MIC of antibiotic, No Compound” value (Enterococcus faecalis) was 250 µg/mL. The MIC (Escherichia coli O157:H7; read-out: MIC (single agent)) was 250 µg/mL (≈ 173 µM) and the survival rate (MRSA HS 10132 [3]; vancomycin only) was “similarly high survival rate”.
